PubChem BioAssay (NCI)
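GI50: concentration for 50% inhibition of growth. TGI marks complete inhibition of growth.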

Key:
Experiment in all cases: NCI-60 cell line screen, 384-well format
ACHN renal = tested on: ACHN renal
MDA-MB-231 breast = tested on: MDA-MB-231 breast
IGROV1 ovarian = tested on: IGROV1 ovarian
SNB-75 CNS = tested on: SNB-75 CNS
MDA-MB-468 breast = tested on: MDA-MB-468 breast
T-47D breast = tested on: T-47D breast
BT-549 breast = tested on: BT-549 breast
786-0 renal = tested on: 786-0 renal
A549 NSCLC = tested on: A549 NSCLC
SF-268 CNS = tested on: SF-268 CNS
SNB-19 CNS = tested on: SNB-19 CNS
COLO 205 colon = tested on: COLO 205 colon
U251 glioblastoma = tested on: U251 glioblastoma
MOLT-4 leukemia = tested on: MOLT-4 leukemia
NCI-H460 NSCLC = tested on: NCI-H460 NSCLC
SW-620 colon = tested on: SW-620 colon
SK-MEL-2 melanoma = tested on: SK-MEL-2 melanoma
M14 melanoma = tested on: M14 melanoma
NCI-H322M lung = tested on: NCI-H322M lung
SR leukemia = tested on: SR leukemia
HOP-62 NSCLC = tested on: HOP-62 NSCLC
RXF 393 renal = tested on: RXF 393 renal
NCI-H226 lung = tested on: NCI-H226 lung
OVCAR-8 ovarian = tested on: OVCAR-8 ovarian
SF-539 CNS = tested on: SF-539 CNS
SK-MEL-28 melanoma = tested on: SK-MEL-28 melanoma
MALME-3M melanoma = tested on: MALME-3M melanoma
HS 578T breast = tested on: HS 578T breast
K-562 leukemia = tested on: K-562 leukemia
A498 renal = tested on: A498 renal
SK-MEL-5 melanoma = tested on: SK-MEL-5 melanoma
MDA-MB-435 melanoma = tested on: MDA-MB-435 melanoma
HCT-15 colon = tested on: HCT-15 colon
HOP-92 NSCLC = tested on: HOP-92 NSCLC
UACC-62 melanoma = tested on: UACC-62 melanoma
SF-295 CNS = tested on: SF-295 CNS
HL-60(TB) leukemia = tested on: HL-60(TB) leukemia
OVCAR-5 ovarian = tested on: OVCAR-5 ovarian
SN12C renal = tested on: SN12C renal
HCT-116 colon = tested on: HCT-116 colon
UO-31 renal = tested on: UO-31 renal
TK-10 renal = tested on: TK-10 renal
UACC-257 melanoma = tested on: UACC-257 melanoma
NCI-H522 lung = tested on: NCI-H522 lung
PC-3 prostate = tested on: PC-3 prostate
NCI-H23 lung = tested on: NCI-H23 lung
DU-145 prostate = tested on: DU-145 prostate
HT29 colon = tested on: HT29 colon
KM12 colon = tested on: KM12 colon
SK-OV-3 ovarian = tested on: SK-OV-3 ovarian
EKVX NSCLC = tested on: EKVX NSCLC
OVCAR-3 ovarian = tested on: OVCAR-3 ovarian
OVCAR-4 ovarian = tested on: OVCAR-4 ovarian
CAKI-1 renal = tested on: CAKI-1 renal

Which GI50 (ACHN renal) does the source give for Nc1nc(Nc2ccc3c(c2)CC[C@@H](N2CCCC2)CC3)nn1-c1cc2c(nn1)-c1ccccc1CCC2 here?
Its GI50 is 431 nM.

What about the TGI (ACHN renal) of the same compound?
The TGI was 1510 nM.

What about the GI50 (MDA-MB-231 breast) of the same compound?
The GI50 was 1630 nM.

What about the TGI (MDA-MB-231 breast) of the same compound?
Its TGI is 3000 nM.

What about the GI50 (IGROV1 ovarian) of the same compound?
Its GI50 is 418 nM.

And the TGI (IGROV1 ovarian)?
Its TGI is 1550 nM.

What about the GI50 (SNB-75 CNS) of the same compound?
The GI50 was 1140 nM.

What about the TGI (SNB-75 CNS) of the same compound?
Its TGI is 2350 nM.

And the GI50 (MDA-MB-468 breast)?
The GI50 was 1450 nM.

And the TGI (MDA-MB-468 breast)?
Its TGI is 2760 nM.

What about the GI50 (T-47D breast) of the same compound?
The GI50 was 1210 nM.

What about the TGI (T-47D breast) of the same compound?
Its TGI is 2450 nM.

What about the GI50 (BT-549 breast) of the same compound?
The GI50 was 1080 nM.

What about the TGI (BT-549 breast) of the same compound?
Its TGI is 2270 nM.

And the GI50 ([…]-0 renal)?
The GI50 was 456 nM.

What about the TGI (786-0 renal) of the same compound?
Its TGI is 1640 nM.

What about the GI50 (A549 NSCLC) of the same compound?
The GI50 was 1380 nM.

And the TGI (A549 NSCLC)?
The TGI was 2700 nM.

And the GI50 (SF-268 CNS)?
The GI50 was 1180 nM.

What about the TGI (SF-268 CNS) of the same compound?
Its TGI is 2410 nM.

What about the GI50 (SNB-19 CNS) of the same compound?
Its GI50 is 1590 nM.

And the TGI (SNB-19 CNS)?
The TGI was 2960 nM.

And the GI50 (COLO 205 colon)?
The GI50 was 1500 nM.

What about the TGI (COLO 205 colon) of the same compound?
The TGI was 2840 nM.

What about the GI50 (U251 glioblastoma) of the same compound?
Its GI50 is 761 nM.

And the TGI (U251 glioblastoma)?
Its TGI is 2020 nM.

And the GI50 (MOLT-4 leukemia)?
Its GI50 is 186 nM.

What about the TGI (MOLT-4 leukemia) of the same compound?
The TGI was 334 nM.

And the GI50 (NCI-H460 NSCLC)?
The GI50 was 360 nM.

What about the TGI (NCI-H460 NSCLC) of the same compound?
Its TGI is 1280 nM.

And the GI50 (SW-620 colon)?
The GI50 was 1140 nM.

And the TGI (SW-620 colon)?
The TGI was 2370 nM.

And the GI50 (SK-MEL-2 melanoma)?
Its GI50 is 415 nM.

What about the TGI (SK-MEL-2 melanoma) of the same compound?
Its TGI is 1400 nM.

And the GI50 (M14 melanoma)?
The GI50 was 451 nM.

And the TGI (M14 melanoma)?
The TGI was 1590 nM.

What about the GI50 (NCI-H322M lung) of the same compound?
The GI50 was 529 nM.

What about the TGI (NCI-H322M lung) of the same compound?
The TGI was 1770 nM.

What about the GI50 (SR leukemia) of the same compound?
The GI50 was 186 nM.

And the TGI (SR leukemia)?
Its TGI is 328 nM.

And the GI50 (HOP-62 NSCLC)?
Its GI50 is 1020 nM.

And the TGI (HOP-62 NSCLC)?
The TGI was 2190 nM.

And the GI50 (RXF 393 renal)?
Its GI50 is 25.9 nM.

What about the TGI (RXF 393 renal) of the same compound?
The TGI was 545 nM.

What about the GI50 (NCI-H226 lung) of the same compound?
The GI50 was 1450 nM.

What about the TGI (NCI-H226 lung) of the same compound?
The TGI was 2770 nM.

What about the GI50 (OVCAR-8 ovarian) of the same compound?
The GI50 was 1520 nM.

And the TGI (OVCAR-8 ovarian)?
The TGI was 2860 nM.

And the GI50 (SF-539 CNS)?
The GI50 was 244 nM.

What about the TGI (SF-539 CNS) of the same compound?
Its TGI is 1110 nM.

And the GI50 (SK-MEL-28 melanoma)?
The GI50 was 1400 nM.

What about the TGI (SK-MEL-28 melanoma) of the same compound?
The TGI was 2700 nM.

And the GI50 (MALME-3M melanoma)?
The GI50 was 284 nM.

What about the TGI (MALME-3M melanoma) of the same compound?
Its TGI is 827 nM.

What about the GI50 (HS 578T breast) of the same compound?
The GI50 was 262 nM.

What about the TGI (HS 578T breast) of the same compound?
The TGI was 1270 nM.

What about the GI50 (K-562 leukemia) of the same compound?
The GI50 was 331 nM.

And the TGI (K-562 leukemia)?
Its TGI is 1210 nM.

And the GI50 (A498 renal)?
Its GI50 is 327 nM.

What about the TGI (A498 renal) of the same compound?
Its TGI is 1190 nM.

And the GI50 (SK-MEL-5 melanoma)?
Its GI50 is 1060 nM.

What about the TGI (SK-MEL-5 melanoma) of the same compound?
The TGI was 2250 nM.

What about the GI50 (MDA-MB-435 melanoma) of the same compound?
The GI50 was 1020 nM.

And the TGI (MDA-MB-435 melanoma)?
The TGI was 2190 nM.

And the GI50 (HCT-15 colon)?
The GI50 was 564 nM.

What about the TGI (HCT-15 colon) of the same compound?
The TGI was 1800 nM.

And the GI50 (HOP-92 NSCLC)?
The GI50 was 798 nM.

What about the TGI (HOP-92 NSCLC) of the same compound?
The TGI was 2070 nM.

And the GI50 (UACC-62 melanoma)?
Its GI50 is 773 nM.

What about the TGI (UACC-62 melanoma) of the same compound?
The TGI was 2020 nM.

What about the GI50 (SF-295 CNS) of the same compound?
The GI50 was 634 nM.

What about the TGI (SF-295 CNS) of the same compound?
The TGI was 1940 nM.

And the GI50 (HL-60(TB) leukemia)?
The GI50 was 1210 nM.

And the TGI (HL-60(TB) leukemia)?
Its TGI is 2450 nM.

What about the GI50 (OVCAR-5 ovarian) of the same compound?
The GI50 was 1630 nM.

What about the TGI (OVCAR-5 ovarian) of the same compound?
The TGI was 3000 nM.

And the GI50 (SN12C renal)?
The GI50 was 346 nM.

What about the TGI (SN12C renal) of the same compound?
The TGI was 1680 nM.

What about the GI50 (HCT-116 colon) of the same compound?
Its GI50 is 478 nM.

What about the TGI (HCT-116 colon) of the same compound?
The TGI was 1730 nM.

What about the GI50 (UO-31 renal) of the same compound?
The GI50 was 1040 nM.

And the TGI (UO-31 renal)?
Its TGI is 2220 nM.

What about the GI50 (TK-10 renal) of the same compound?
Its GI50 is 1010 nM.

What about the TGI (TK-10 renal) of the same compound?
Its TGI is 2180 nM.

And the GI50 (UACC-257 melanoma)?
The GI50 was 182 nM.

And the TGI (UACC-257 melanoma)?
The TGI was 368 nM.

What about the GI50 (NCI-H522 lung) of the same compound?
The GI50 was 1270 nM.

What about the TGI (NCI-H522 lung) of the same compound?
The TGI was 2540 nM.

What about the GI50 (PC-3 prostate) of the same compound?
Its GI50 is 796 nM.

And the TGI (PC-3 prostate)?
The TGI was 2050 nM.

And the GI50 (NCI-H23 lung)?
The GI50 was 1330 nM.

And the TGI (NCI-H23 lung)?
Its TGI is 2610 nM.

And the GI50 (DU-145 prostate)?
The GI50 was 939 nM.

And the TGI (DU-145 prostate)?
The TGI was 2160 nM.

And the GI50 (HT29 colon)?
The GI50 was 326 nM.

What about the TGI (HT29 colon) of the same compound?
Its TGI is 1080 nM.

And the GI50 (KM12 colon)?
Its GI50 is 1070 nM.

What about the TGI (KM12 colon) of the same compound?
The TGI was 2290 nM.

And the GI50 (SK-OV-3 ovarian)?
The GI50 was 305 nM.

What about the TGI (SK-OV-3 ovarian) of the same compound?
Its TGI is 1240 nM.

And the GI50 (EKVX NSCLC)?
The GI50 was 1020 nM.

And the TGI (EKVX NSCLC)?
The TGI was 2190 nM.

And the GI50 (OVCAR-3 ovarian)?
The GI50 was 1150 nM.

What about the TGI (OVCAR-3 ovarian) of the same compound?
The TGI was 2370 nM.

What about the GI50 (OVCAR-4 ovarian) of the same compound?
The GI50 was 1480 nM.

And the TGI (OVCAR-4 ovarian)?
Its TGI is 2800 nM.

What about the GI50 (CAKI-1 renal) of the same compound?
Its GI50 is 493 nM.

And the TGI (CAKI-1 renal)?
The TGI was 1720 nM.
